How the values were obtained:
ElogD 7.4 = format: physicochemical; conditions: pH 7.4
Source text: 4 Detailed In Vitro and In Vivo Profiles for Selected M1 PAMs ^a | column: 17k; 17g

[1] = Intrinsic clearance in human hepatic microsomes, predicted hepatic clearance; format: in vitro ADME; conditions: predicted hepatic clearance from human hepatic microsomes
Description: A similar approach was used to determine the degree of brain homogenate binding, which employed the same methodology and procedure with the following modifications: 1) a final compound concentration of 1 μM was used, 2) naïve rat brains were homogenized in DPBS (1:3 composition of brain: DPBS, w/w) using a Mini-Bead Beater™ machine in order to obtain brain homogenate, which was then treated in the same manner as the plasma samples in the previously described plasma protein binding assay. […]
same manner as the plasma samples in the previously described plasma protein binding assay. Fraction unbound for both plasma and brain samples was determined using Equation 4.
Equation 4 Determination of fraction unbound in plasma.
The diluted fraction unbound (fu2) in brain was calculated in the same manner by using brain homogenate rather than plasma. Undiluted fraction unbound for the brain was calculated using Equation 5 […]
Equation 5 Determination of fraction unbound in brain. […]
Human or rat hepatic microsomes (0.5 mg/mL) and 1 µM test compound were incubated in 100 mM potassium phosphate pH 7.4 buffer with 3 mM MgCl 2 at 37 °C with constant shaking. […] The in vitro half-life (1/2, min, Eq. 1), intrinsic clearance (CL int, mL/min/kg, Eq. 2), and subsequent predicted hepatic clearance (CLhep, mL/min/kg, Eq. 3) was determined employing the following equations: […]

[2] = Rat in vivo PK (PK/PBL cassette); conditions: for AUC / MRT / half-life / Vd: plasma; for clearance: plasma clearance, read-out: CLp; for Vd: read-out: Vss
Source text: 4 Detailed In Vitro and In Vivo Profiles for Selected M1 PAMs ^a | column: Property; 17k; 17g

Structure (SMILES) | chromatographic logD (ElogD 7.4) | Human CLHEP [1] [mL/min/kg] | AUC [2] [ng·h/mL] | MRT [2] [min] | half-life [2] [min] | clearance [2] [mL/min/kg] | Vd [2] [L/kg]
Cn1cc(-c2ccc(Cc3cc(C(=O)N[C@H]4CCOC[C@@H]4O)nn3C3CCCC3)cc2)cn1 [17g] | 3.05 | 6.7 | 160 | 76.8 | 72.6 | 20.8 | 1.59
Cn1cc(-c2ccc(Cc3cc(C(=O)N[C@H]4CCCC[C@@H]4O)nn3C3CCCC3)cc2)cn1 [17k] | 4.15 | 14.3 | 74.4 | 39 | 37.8 | 56 | 2.2

— publication PMC12257413, “Discovery of a Novel sp^3‑Rich M1 Positive Allosteric Modulators (PAMs) Chemotype via Scaffold Hopping” (ACS Medicinal Chemistry Letters, 2025)
